# Species on record: Rattus norvegicus
# Assay: DrugMatrix - Regimen: Daily Repeat
# Type: toxicity, organism-based, Sprague-Dawley
# Parameters: regimen Daily Repeat, gender Male, age 6-8 weeks
# Settings: in vivo, po, route oral GAVAGE, […]; for ABSOLUTE BASOPHIL / ABSOLUTE EOSINOPHIL / ABSOLUTE LYMPHOCYTE / ABSOLUTE MONOCYTE / ABSOLUTE SEGMENTED NEUTROPHIL / BASOPHIL / EOSINOPHIL / ERYTHROCYTE COUNT / HEMATOCRIT / HEMOGLOBIN / LEUKOCYTE COUNT / LYMPHOCYTE / MEAN CORPUSCULAR HEMOGLOBIN / MEAN CORPUSCULAR HEMOGLOBIN CONCENTRATION / MEAN CORPUSCULAR VOLUME / MONOCYTE / NEUTROPHIL / NUCLEATED RED BLOOD CELLS / PLATELET COUNT: tissue Blood; for ALANINE AMINOTRANSFERASE / ALBUMIN / ALKALINE PHOSPHATASE / ASPARTATE AMINOTRANSFERASE / BLOOD UREA NITROGEN / CARBON DIOXIDE / CHLORIDE / CHOLESTEROL / CREATINE PHOSPHOKINASE / CREATININE / GLUCOSE / LACTATE DEHYDROGENASE / LIPASE / PHOSPHORUS / POTASSIUM / SODIUM / TOTAL BILIRUBIN / TOTAL PROTEIN / URIC ACID: tissue Plasma
# [1] = 25 mg/kg, 72 h, dose level Low, time 3 day
# [2] = 25 mg/kg, 120 h, dose level Low, time 5 day
# [3] = 250 mg/kg, 72 h, dose level High, time 3 day
# [4] = 250 mg/kg, 120 h, dose level High, time 5 day
smiles,measurement,setting,value
CC(C)C(Br)C(=O)NC(N)=O (configuration not stated) [BROMISOVALUM],ABSOLUTE BASOPHIL,[1],0 CELLS/uL
same,ABSOLUTE EOSINOPHIL,[1],72.33 CELLS/uL
same,ABSOLUTE LYMPHOCYTE,[1],9251.33 CELLS/uL
same,ABSOLUTE MONOCYTE,[1],35.67 CELLS/uL
same,ABSOLUTE SEGMENTED NEUTROPHIL,[1],740.67 CELLS/uL
same,BASOPHIL,[1],0%
same,EOSINOPHIL,[1],0.67%
same,ERYTHROCYTE COUNT,[1],5.09 x10E6/uL
same,HEMATOCRIT,[1],32.1%
same,HEMOGLOBIN,[1],12.97 G/DL
same,LEUKOCYTE COUNT,[1],10.1 x10E3/uL
same,LYMPHOCYTE,[1],91.67%
same,MEAN CORPUSCULAR HEMOGLOBIN,[1],25.47 pg
same,MEAN CORPUSCULAR HEMOGLOBIN CONCENTRATION,[1],40.4 G/DL
same,MEAN CORPUSCULAR VOLUME,[1],63.03 fL
same,MONOCYTE,[1],0.33%
same,NEUTROPHIL,[1],7.33%
same,NUCLEATED RED BLOOD CELLS,[1],0 /100WBC
same,PLATELET COUNT,[1],1168.33 x10E3/uL
same,ALANINE AMINOTRANSFERASE,[1],71.33 u/L
same,ALBUMIN,[1],4.37 G/DL
same,ALKALINE PHOSPHATASE,[1],465.67 u/L
same,ASPARTATE AMINOTRANSFERASE,[1],81.33 u/L
same,BLOOD UREA NITROGEN,[1],12.67 mg/dL
same,CARBON DIOXIDE,[1],33.33 mmol/L
same,CHLORIDE,[1],101 MEQ/L
same,CHOLESTEROL,[1],83 mg/dL
same,CREATINE PHOSPHOKINASE,[1],114.33 u/L
same,CREATININE,[1],0.13 mg/dL
same,GLUCOSE,[1],140.33 mg/dL
same,LACTATE DEHYDROGENASE,[1],109.33 u/L
same,LIPASE,[1],12.67 u/L
same,PHOSPHORUS,[1],10.3 mg/dL
same,POTASSIUM,[1],5.88 MEQ/L
same,SODIUM,[1],149.4 MEQ/L
same,TOTAL BILIRUBIN,[1],0.23 mg/dL
same,TOTAL PROTEIN,[1],5.6 G/DL
same,URIC ACID,[1],0.63 mg/dL
same,ABSOLUTE BASOPHIL,[2],0 CELLS/uL
same,ABSOLUTE EOSINOPHIL,[2],0 CELLS/uL
same,ABSOLUTE LYMPHOCYTE,[2],11869 CELLS/uL
same,ABSOLUTE MONOCYTE,[2],46.67 CELLS/uL
same,ABSOLUTE SEGMENTED NEUTROPHIL,[2],851 CELLS/uL
same,BASOPHIL,[2],0%
same,EOSINOPHIL,[2],0%
same,ERYTHROCYTE COUNT,[2],5.78 x10E6/uL
same,HEMATOCRIT,[2],35.77%
same,HEMOGLOBIN,[2],14.1 G/DL
same,LEUKOCYTE COUNT,[2],12.77 x10E3/uL
same,LYMPHOCYTE,[2],93%
same,MEAN CORPUSCULAR HEMOGLOBIN,[2],24.37 pg
same,MEAN CORPUSCULAR HEMOGLOBIN CONCENTRATION,[2],39.43 G/DL
same,MEAN CORPUSCULAR VOLUME,[2],61.83 fL
same,MONOCYTE,[2],0.33%
same,NEUTROPHIL,[2],6.67%
same,NUCLEATED RED BLOOD CELLS,[2],0 /100WBC
same,PLATELET COUNT,[2],1234 x10E3/uL
same,ALANINE AMINOTRANSFERASE,[2],59.67 u/L
same,ALBUMIN,[2],4.33 G/DL
same,ALKALINE PHOSPHATASE,[2],401 u/L
same,ASPARTATE AMINOTRANSFERASE,[2],86.33 u/L
same,BLOOD UREA NITROGEN,[2],12.67 mg/dL
same,CARBON DIOXIDE,[2],27 mmol/L
same,CHLORIDE,[2],103 MEQ/L
same,CHOLESTEROL,[2],65 mg/dL
same,CREATINE PHOSPHOKINASE,[2],275 u/L
same,CREATININE,[2],0.14 mg/dL
same,GLUCOSE,[2],162.67 mg/dL
same,LACTATE DEHYDROGENASE,[2],114.33 u/L
same,LIPASE,[2],9.67 u/L
same,PHOSPHORUS,[2],12.73 mg/dL
same,POTASSIUM,[2],6.6 MEQ/L
same,SODIUM,[2],147.97 MEQ/L
same,TOTAL BILIRUBIN,[2],0.2 mg/dL
same,TOTAL PROTEIN,[2],6.17 G/DL
same,URIC ACID,[2],1.7 mg/dL
same,ABSOLUTE BASOPHIL,[3],0 CELLS/uL
same,ABSOLUTE EOSINOPHIL,[3],0 CELLS/uL
same,ABSOLUTE LYMPHOCYTE,[3],11820.33 CELLS/uL
same,ABSOLUTE MONOCYTE,[3],38.33 CELLS/uL
same,ABSOLUTE SEGMENTED NEUTROPHIL,[3],1174.67 CELLS/uL
same,BASOPHIL,[3],0%
same,EOSINOPHIL,[3],0%
same,ERYTHROCYTE COUNT,[3],5.57 x10E6/uL
same,HEMATOCRIT,[3],35.87%
same,HEMOGLOBIN,[3],14.33 G/DL
same,LEUKOCYTE COUNT,[3],13.03 x10E3/uL
same,LYMPHOCYTE,[3],91%
same,MEAN CORPUSCULAR HEMOGLOBIN,[3],25.8 pg
same,MEAN CORPUSCULAR HEMOGLOBIN CONCENTRATION,[3],39.97 G/DL
same,MEAN CORPUSCULAR VOLUME,[3],64.47 fL
same,MONOCYTE,[3],0.33%
same,NEUTROPHIL,[3],8.67%
same,NUCLEATED RED BLOOD CELLS,[3],0 /100WBC
same,PLATELET COUNT,[3],1177.33 x10E3/uL
same,ALANINE AMINOTRANSFERASE,[3],70 u/L
same,ALBUMIN,[3],4.17 G/DL
same,ALKALINE PHOSPHATASE,[3],407.67 u/L
same,ASPARTATE AMINOTRANSFERASE,[3],90.33 u/L
same,BLOOD UREA NITROGEN,[3],15 mg/dL
same,CARBON DIOXIDE,[3],27.33 mmol/L
same,CHLORIDE,[3],103 MEQ/L
same,CHOLESTEROL,[3],62.67 mg/dL
same,CREATINE PHOSPHOKINASE,[3],210.67 u/L
same,CREATININE,[3],0.26 mg/dL
same,GLUCOSE,[3],148 mg/dL
same,LACTATE DEHYDROGENASE,[3],109.33 u/L
same,LIPASE,[3],10.33 u/L
same,PHOSPHORUS,[3],11.9 mg/dL
same,POTASSIUM,[3],6.86 MEQ/L
same,SODIUM,[3],144.53 MEQ/L
same,TOTAL BILIRUBIN,[3],0.2 mg/dL
same,TOTAL PROTEIN,[3],5.67 G/DL
same,URIC ACID,[3],1.67 mg/dL
same,ABSOLUTE BASOPHIL,[4],0 CELLS/uL
same,ABSOLUTE EOSINOPHIL,[4],46.33 CELLS/uL
same,ABSOLUTE LYMPHOCYTE,[4],14344.33 CELLS/uL
same,ABSOLUTE MONOCYTE,[4],108 CELLS/uL
same,ABSOLUTE SEGMENTED NEUTROPHIL,[4],1434.67 CELLS/uL
same,BASOPHIL,[4],0%
same,EOSINOPHIL,[4],0.33%
same,ERYTHROCYTE COUNT,[4],6.03 x10E6/uL
same,HEMATOCRIT,[4],36.47%
same,HEMOGLOBIN,[4],14.63 G/DL
same,LEUKOCYTE COUNT,[4],15.93 x10E3/uL
same,LYMPHOCYTE,[4],89.67%
same,MEAN CORPUSCULAR HEMOGLOBIN,[4],24.23 pg
same,MEAN CORPUSCULAR HEMOGLOBIN CONCENTRATION,[4],40.13 G/DL
same,MEAN CORPUSCULAR VOLUME,[4],60.47 fL
same,MONOCYTE,[4],0.67%
same,NEUTROPHIL,[4],9.33%
same,NUCLEATED RED BLOOD CELLS,[4],0 /100WBC
same,PLATELET COUNT,[4],1192.33 x10E3/uL
same,ALANINE AMINOTRANSFERASE,[4],64.67 u/L
same,ALBUMIN,[4],4.43 G/DL
same,ALKALINE PHOSPHATASE,[4],429.33 u/L
same,ASPARTATE AMINOTRANSFERASE,[4],83.67 u/L
same,BLOOD UREA NITROGEN,[4],13.33 mg/dL
same,CARBON DIOXIDE,[4],25.67 mmol/L
same,CHLORIDE,[4],104 MEQ/L
same,CHOLESTEROL,[4],55 mg/dL
same,CREATINE PHOSPHOKINASE,[4],157.67 u/L
same,CREATININE,[4],0.2 mg/dL
same,GLUCOSE,[4],140.67 mg/dL
same,LACTATE DEHYDROGENASE,[4],110.67 u/L
same,LIPASE,[4],9.67 u/L
same,PHOSPHORUS,[4],9.97 mg/dL
same,POTASSIUM,[4],6.56 MEQ/L
same,SODIUM,[4],144.1 MEQ/L
same,TOTAL BILIRUBIN,[4],0.2 mg/dL
same,TOTAL PROTEIN,[4],6.27 G/DL
same,URIC ACID,[4],1.53 mg/dL

# Reference: ChEMBL document CHEMBL3885881, “DrugMatrix”
